Legend:
[1] = test system: anesthetized naïve (spinal intact) rats, rectal pressure; experiment: Rectal (colorectal) pressure recording via balloon catheter after intrarectal dosing in anesthetized spinal intact rats; format: in vivo, rat
Procedure: General: In vivo studies were performed in anesthetized, spinally intact rats (N=10). Adult male Sprague Dawley rats (Charles River, 250-300 g) were housed at an AAALAC approved facility in cages (2-3/cage) with free access to water and food in a colony room that was maintained on a 12 hr light/12 hr dark cycle 1-2 weeks before the experiment. Rats were anesthetized with urethane (1.2-1.4 g/kg subcutaneous injection). Surgical procedures were then performed with the addition of isoflurane anesthesia (0.05-1.5% in O2) as the full anesthetic effect of urethane takes about 1-2 hrs.
A catheter filled with heparinized saline (30 unit/ml) was inserted into the carotid artery and connected to a pressure transducer for measurement of blood pressure and heart rate. A catheter was inserted into the jugular vein for intravenous (i.v.) administration of drugs.
Colorectal Contractility: Colorectal pressures were measured via a latex balloon catheter (length 2-3 cm) inserted (˜3-4 cm) into the distal colorectal region. The catheter was connected to a pressure monitoring system. The pressure in the balloon catheter was slowly increase to 10-15 mmHg by infusing saline (0.2-0.5 ml total volume) and this pressure was maintained throughout the study. This allowed drug induced changes in colorectal pressure to be monitored. Parameters measured include peak colorectal pressure response, duration of time above baseline activity (in the 1st 5 min after drug administration), area under the curve (measured during the 1st 5 min after drug administration) and the number of contractile events after vehicle and drug administration.
Dosing: Intrarectal TRPV1 agonists were administered in a dose range of 0.01-2% wt/vol. Nonivamide, OEA, OLDA and capsaicin were dissolved in 95% ethanol at 20-100 mg/mL and then diluted to 0.01-2% with the vehicle (Tween-80:95% ethanol:saline in a ratio of 10:10:80) and administered intrarectally as a solution using a small gauge tube, or a solution soaked cotton wool plug, to mimic a suppository-like dosage form.
Methods: The TRPV1 receptor agonist nonivamide was administered to anesthetized spinal intact male rats (N=6) instrumented for rectal pressure recording via a balloon catheter inserted into the rectum 3-4 cm from the anus. A 0.1% solution (0.2 mL of a 1 mg/ml solution in Tween-80:ethanol:saline (ratio 10:10:80)) of nonivamide was administered via a 20 gauge feeding tube that was inserted ˜2 cm into the rectum. For comparison, vehicle (Tween-80:ethanol:saline in a ratio of 10:10:80) was administered using the same techniques.
Methods: The TRPV1 receptor agonist nonivamide was administered to anesthetized spinal intact male rats instrumented for rectal pressure recording via a balloon catheter inserted into the rectum 3-4 cm from the anus. A 1% solution (0.2 mL of a 10 mg/ml solution in Tween-80:ethanol:saline (ratio 10:10:80)) of nonivamide was administered via a 20 gauge feeding tube that was inserted 2-3 cm into the rectum.
Methods: Nonivamide was administered to a naive anesthetized male rat instrumented for rectal pressure recording via a balloon catheter inserted into the rectum 2-4 cm from the anus. To mimic a suppository dosage form, nonivamide (1%) was administered via a fluid-soaked small cotton wool plug. The cotton wool plug was placed into the anal canal at the distal rectum.
Methods: OAE (N=4) was administered to anesthetized naïve male rats (N=5) instrumented for rectal pressure recording via a balloon catheter inserted into the rectum 3-4 cm from the anus. OEA was administered as 0.01-0.2% solution (0.2 mL of a […] solution in Tween-80:95% ethanol:saline (ratio 10:10:80)) via a small cotton wool plug soaked in 0.2 mL of solution, to mimic a suppository dosage form, that was inserted into the rectum. For comparison, vehicle was administered to all rats using the same techniques. […]

[2] = test system: rectal afferent terminals; settings: human subjects; cited from earlier work
[3] = test system: conscious dogs, colon; settings: intracolonic administration; cited from earlier work
[4] = test system: anesthetized acute T9-transected SCI rat, rectal pressure; experiment: Rectal pressure recording in anesthetized acute spinal cord injured (SCI) rat; format: in vivo; settings: cotton ball suppository soaked in 50 uL of 0.2% solution, acute T9-transected SCI female rat
Procedure: For the acute SCI model, animals were anesthetized with urethane (1.0-1.4 g/kg subcutaneous injection), the skin and muscle on the dorsal side at the level of the thoracic vertebrae were incised, and the spinal cord was carefully exposed by a laminectomy and transected at T8-T10 spinal level. Gelfoam^R was placed at the incision site and the muscle and skin overlying the vertebrae were closed with wound clips. The spinal cord was transected at least 60 min before starting the experimental protocol.
For all rectal contractility studies, animals were anesthetized with urethane (1.0-1.4 g/kg subcutaneous injection). […]
Rectal Contractility: Rectal pressures were measured via a latex balloon catheter (length 1.5-4 cm) inserted (˜4 cm) into the distal rectal region. […] Parameters measured included peak rectal pressure response, duration of time above baseline activity (in the 1st 5 min after drug administration), area under the curve (measured during the 1st 5 min after drug administration) and the number of contractile events after vehicle and drug administration.
Methods: Capsaicin was administered to 2 anesthetized female rats instrumented for rectal pressure recording via a balloon catheter inserted into the rectum 2-4 cm from the anus. […] Top and bottom traces in FIG. 9 were recorded from individual female rats.

[5] = test system: conscious spinal intact rats, defecation; experiment: Defecation in conscious rats monitored in metabolism cages after intrarectal dosing; format: in vivo, rat
Procedure: Defecation in awake animals was monitored in metabolism cages. Animals were habituated to handling and the metabolism cages on 2-4 occasions prior to dosing and were then randomized to a treatment arm. Rats were weighed and placed into metabolism cages for 10 min prior to intrarectal administration of vehicle or TRPV1 agonist. The number of fecal pellets and timing of events were recorded by trained personnel that were blinded to treatment. Fecal weight was weighed at 20 min post dosing.
Defecation in conscious rats was monitored in metabolism cages. Rats were habituated to handling and the metabolism cages on 2-4 occasions before dosing, then randomized to the treatment arm. Rats were weighed and placed into metabolism cages for 10 min prior to receiving an intrarectal dose of vehicle or capsaicin. Since manual stimulation during intrarectal dosing in conscious rats can induce defecation, palpation of the distal rectum was performed to remove any fecal pellets located in the region of the anal sphincter. […] Once the anal sphincter had ceased contracting/relaxing (15-90 s) a fine catheter (22 G soft/flexible blunt tip catheter) was used to dose the vehicle or capsaicin, as this method produced little manual stimulation. Capsaicin was prepared as a 0.01, 0.1 or 1% solution (0.1, 1 or 10 mg/ml in tween-80/ethanol/saline (ratio of 10/10/80) or vehicle. Dose volumes were 0.1 mL and administered via the catheter inserted ˜1 inch through the anus into the rectum. The number of fecal pellets and timing of events were recorded by trained personnel blinded to the treatment. Fecal weight was recorded at 20 min post dosing.

[6] = 0.2%, cotton wool plug soaked in 0.2 mL, N=1
[7] = cotton wool plug soaked in 0.2 mL of 0.2% solution
[8] = 0.1% solution, 0.2 mL intrarectal
[9] = 1% solution, 0.2 mL intrarectal
[10] = 0.01-0.2% solution, cotton wool plug soaked in 0.2 mL, intrarectal
[11] = 0.2% solution, 0.05-0.32 mL intrarectal
[12] = cotton ball suppository soaked in 50 uL of 0.2% solution, spinal intact naïve female rat
[13] = cotton wool plug (1% in FIG. 7A), intrarectal, N=3
[14] = intrarectal solution, conscious rats

Which “duration of rectal pressure increase” value [1, 6] does the source give for CCCCCCCC/C=C\CCCCCCCC(=O)NCCc1ccc(O)c(O)c1 [OLDA, N-Oleoyldopamine] here?
Its value is 5 min.

And the “onset time of rectal pressure increase” value [1, 6]?
The value was 0.5 to 2 min.

What about the “rectal response: expulsion of balloon catheter” value [1, 7] of the same compound?
Its value is “sufficient to expel the balloon catheter”.

Which results are given for CCCCCCCCC(=O)NCc1ccc(O)c(OC)c1 [Nonivamide]?
duration of rectal pressure increase [1, 8]: 5 min; onset time of rectal pressure increase [1, 8]: 1 to 2 min; rats with transient rectal pressure increase ([1]; 0.1% solution, 0.2 mL intrarectal via feeding tube, male rats): 6 of 6; duration of rectal pressure increase [1, 9]: 5 to 10 min; onset time of rectal pressure increase [1, 9]: 1 to 2 min; rectal response: expulsion of balloon catheter ([1]; cotton wool plug soaked in 0.2 mL of 1% solution): sufficient to expel the balloon catheter; onset of increase in rectal pressure ([1]; cotton wool plug soaked in 0.2 mL of 1% solution, 1 male rat): ≤ 1 min

Which “duration of rectal pressure increase” value [1, 10] does the source give for CCCCCCCC/C=C\CCCCCCCC(=O)NCCO [OEA, Oleoylethanolamide] here?
Its value is 5 to 10 min.

What about the “onset time of rectal pressure increase” value [1, 10] of the same compound?
Its value is 0.5 to 2 min.

What about the “defecation in anesthetized rat (FIG. 5)” value [1, 7] of the same compound?
Its value is “defecation of fecal pellets”.

And the “rectal response: expulsion of balloon catheter” value [1, 7]?
The value was “sufficient to expel the balloon catheter”.

For COc1cc(CNC(=O)CCCC/C=C/C(C)C)ccc1O [Capsaicin], which “reported sensations after intrarectal administration” value [2] is on record?
The value was “an urge to defecate”.

What about the “effect on colon and defecation” value [3] of the same compound?
The value was “initiate defecation”.

And the “duration of rectal pressure increase” value [1, 11]?
Its value is 5 min.

And the “onset time of rectal pressure increase” value [1, 11]?
The value was 1 to 2 min.

And the “rats with transient rectal pressure increase” value ([1]; 0.2% solution, 0.05-0.32 mL intrarectal via PE50 tube, 4 males and 1 female)?
Its value is 5 of 5.

What about the peak colorectal pressure ([1]; 1% soaked cotton wool plug, FIG. 7A, example of one male rat) of the same compound?
Its peak colorectal pressure is ~40 mmHg.

And the “duration of rectal pressure increase” value [1, 12]?
The value was < 5 min.

And the “onset of rectal pressure increase” value [1, 12]?
Its value is < 2 min.

What about the “duration of increase in colorectal pressure” value [1, 13] of the same compound?
Its value is < 5 min.

What about the “onset of increase in colorectal pressure” value [1, 13] of the same compound?
Its value is < 1 min.

And the “duration of rectal pressure increase” value [4]?
The value was < 5 min.

And the “onset of rectal pressure increase” value [4]?
Its value is < 2 min.

And the “number of fecal pellets expelled compared to vehicle” value ([5]; 1% solution, 0.1 mL intrarectal, 10 min after dosing, N=6, p<0.05)?
Its value is “significantly increased”.

And the “total weight of fecal pellets expelled compared to vehicle” value ([5]; 1% solution, 0.1 mL intrarectal, 20 min after dosing, N=6, p<0.05)?
The value was “significantly increased”.

And the “time to completion of defecation” value [5, 14]?
The value was ≤ 10 min.

And the time to defecation [5, 14]?
Its time to defecation is ≤ 5 min.
